Earlier results, collected in US20130090323A1, “HETEROCYCLIC COMPOUNDS AND THEIR USES” (Amgen Inc., priority 2010, published 2013).

Tests used:
p110δ = biological target: T1, p110δ (Homo sapiens, UniProt O00329)
T1 sequence (O00329 1-1044): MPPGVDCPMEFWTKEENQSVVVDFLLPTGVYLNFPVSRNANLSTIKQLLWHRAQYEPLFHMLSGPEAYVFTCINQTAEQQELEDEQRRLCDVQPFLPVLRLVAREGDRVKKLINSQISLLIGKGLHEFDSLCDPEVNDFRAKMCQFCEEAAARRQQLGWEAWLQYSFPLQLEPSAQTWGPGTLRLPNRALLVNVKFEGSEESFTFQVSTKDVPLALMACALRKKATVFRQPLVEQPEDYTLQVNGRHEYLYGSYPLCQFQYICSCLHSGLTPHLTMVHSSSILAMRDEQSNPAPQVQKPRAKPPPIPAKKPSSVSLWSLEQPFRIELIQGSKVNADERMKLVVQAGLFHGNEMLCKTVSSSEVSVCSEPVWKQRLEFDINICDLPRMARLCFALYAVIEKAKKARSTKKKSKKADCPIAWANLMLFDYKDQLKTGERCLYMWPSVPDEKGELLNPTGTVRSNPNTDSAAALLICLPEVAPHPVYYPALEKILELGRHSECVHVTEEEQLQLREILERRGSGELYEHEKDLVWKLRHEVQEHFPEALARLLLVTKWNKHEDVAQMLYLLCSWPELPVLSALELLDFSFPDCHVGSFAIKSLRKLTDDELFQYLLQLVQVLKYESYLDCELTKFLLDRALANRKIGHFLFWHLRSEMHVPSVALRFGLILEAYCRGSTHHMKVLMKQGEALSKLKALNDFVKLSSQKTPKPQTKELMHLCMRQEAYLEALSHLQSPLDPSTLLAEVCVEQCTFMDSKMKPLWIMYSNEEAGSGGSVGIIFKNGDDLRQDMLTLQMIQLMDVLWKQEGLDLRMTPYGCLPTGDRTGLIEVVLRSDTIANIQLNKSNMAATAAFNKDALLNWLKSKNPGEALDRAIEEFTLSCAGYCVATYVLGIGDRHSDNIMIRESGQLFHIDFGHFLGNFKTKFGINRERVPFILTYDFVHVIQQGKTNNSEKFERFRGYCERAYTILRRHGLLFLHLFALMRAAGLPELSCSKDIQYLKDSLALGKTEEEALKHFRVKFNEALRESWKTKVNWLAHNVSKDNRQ

[1] = tested on: murine model of allergic disease; conditions: absence of functional delta (compound and p110δ D910A mice)
murine model of asthma = conditions: mouse, in vivo
[2] = tested on: mouse model of rheumatoid arthritis; conditions: in vivo
[3] = tested on: model of systemic lupus erythematosis; conditions: in vivo

Compound	inhibition of p110δ (p110δ)	activity against any protein kinases tested (protein kinases)	passive cutaneous anaphylaxis (PCA) [1]	inflammation and disease in ovalbumin-induced airway inflammation (murine model of asthma)	efficacy in a mouse model of rheumatoid arthritis [2]	onset of disease in a model of systemic lupus erythematosis [3]
Cc1ccccc1-n1c(Cn2cnc3c(N)ncnc32)nc2cccc(C)c2c1=O [IC87114]	high nanomolar range (triple digit)	no activity	significantly reduced	significantly ameliorate inflammation and disease		
O=C1NC(=O)/C(=C\c2ccc3nccnc3c2)S1 [AS 605240]					efficacious	delay onset of disease
